Data reported in patent US20220031680A1, “Donecopride As Neuroprotective Agent In the Treatment of Neurodegenerative Diseases” (priority 2018, published 2022).
Marks after values point to notes of the source that are not given here.

Tested on: rat primary hippocampal neurons injured with Aβ 1-42
Experiment: Number of synapses (PSD95/SYN overlap) in primary hippocampal neurons injured with Aβ1-42
Type: cell-based
Conditions: for Number of synapses (% of control): Aβ 1-42 (20 μM) in Table 5, 24 h; for number of synapses normalized by the number of neurons (formation of new synapses): Aβ 1-42 injured hippocampal neurons
Method: The hippocampal neurons were exposed with Aβ solutions (see below) after 17 days of culture. The Aβ1-42 preparation was done following the procedure described by Callizot et al. (2013) J. Neurosci. Res. 91706-716. Briefly, Aβ1-42 peptide was dissolved in the defined culture medium mentioned above, at an initial concentration of 40 μM. This solution was gently agitated for 3 days at 37° C. in the dark and immediately used after being properly diluted in culture medium to the concentrations used (20 μM (plate 1) or 2.5 μM (plate 2) corresponding to 2 μM or 0.25 μM of oligomers (AβO) respectively).
Donecopride fumarate was solved in culture medium and preincubated 1 h before Aβ application. Aβ1-42 preparation was added to a final concentration of 20 or 2.5 μM (=2 μM or 0.25 μM of AβO, evaluated by automatic Western Blot) diluted in control medium in presence of Donecopride.
24 hours after intoxication, the hippocampal neurons were fixed by a cold solution of ethanol (95%) and acetic acid (5%) for 5 min at −20° C. After permeabilization with 0.1% of saponin, cells were incubated for 2 h with:
a) mouse monoclonal antibody anti post synaptic density 95 kDa (PSD95) at a dilution of 1/100 in PBS containing 1% fetal calf serum and 0.1% of saponin.
b) Rabbit polyclonal antibody anti-synaptophysin (SYN) at the dilution of 1/100 in PBS containing 1% fetal calf serum and 0.1% of saponin.
For each condition, 40 pictures per well were taken using ImageXpress (Molecular Devices) with 40× magnification. All images were taken with the same acquisition parameters.
Synapses evaluation was performed automatically by using Custom module editor (Molecular Devices).
The following endpoints were assessed: • Total number of synapses (overlapping between PSD95/SYN).
To assess the formation of synapses, the distribution of PSD-95, a post-synaptic marker, and synaptophysin, a pre-synaptic marker, was studied. A structure positive for both PD-95 and synaptophysin staining was considered as a synapse.
Injury: The hippocampal neurons were exposed with Aβ solutions (see below) after 17 days of culture. The Aβ1-42 preparation was done following the procedure described by Callizot et al. (2013) J. Neurosci. Res. 91:706-716. The batch number of the Aβ1-42 used in this study contains 10% of oligomers (quantification by WB as performed in Combes et al. (2015) J. Neurosci. Res. 93:633-643). Briefly, Aβ1-42 peptide was dissolved in the defined culture medium mentioned above, at an initial concentration of 40 μmol/1. This solution was gently agitated for 3 days at 37° C. in the dark and immediately used after being properly diluted in culture medium to the concentrations used (20 μmol/l or 2.5 μmol/l corresponding to 2 μmol/l or 0.25 μmol/l of oligomers (AβO) respectively). Aβ1-42 preparation was added to a final concentration of 20 or 2.5 μmol/l (respectively 2 μmol/l or 0.25 μmol/l of AβO, determined by automatic WB) diluted in control medium in presence of the compounds.
Immunostaining: PSD95 and SYN—After fixation and permeabilization, cells were incubated for 2 hours with: • mouse monoclonal antibody anti post synaptic density 95 kDa (PSD95) at dilution of 1/200 in PBS containing 1% fetal calf serum and 0.1% saponin; • rabbit polyclonal antibody anti-synaptophysin (SYN) at the dilution of 1/100 in PBS containing 1% fetal calf serum and 0.1% saponin.
For each condition, 40 pictures per well were taken using ImageXpress (Molecular Devices) with 40× magnification. All images were taken with the same conditions. Synapses evaluation were performed automatically by using Custom Module Editor® (Molecular Devices). The following endpoints were assessed: • Number of synapses (overlapping between PSD95/SYN)

Row | Structure (SMILES) | Number of synapses (% of control) (1 nM) | Number of synapses (% of control) (5 nM) | Number of synapses (% of control) (10 nM) | Number of synapses (% of control) (50 nM) | Number of synapses (% of control) (100 nM) | Number of synapses (% of control) (500 nM) | number of synapses normalized by the number of neurons (formation of new synapses) (500 nM) | Number of synapses (% of control) (1 μM) | number of synapses normalized by the number of neurons (formation of new synapses) (Donepezil group (1 μM)) | concentration up to which the effect on synapses is significant (Aβ1-42 injured hippocampal neurons, Example 5 (FIG. 12)) [µM]
1 | COc1cc(N)c(Cl)cc1C(=O)CCC1CCN(CC2CCCCC2)CC1 [Donecopride] | 69 % of control | 83* % of control | 87* % of control | 91* % of control | 93* % of control | 94* % of control | significantly promoted the formation of new synapses | 85* % of control |  | 
2 | COc1cc2c(cc1OC)C(=O)C(CC1CCN(Cc3ccccc3)CC1)C2 (centres unmarked) [Donepezil, reference compound] |  |  |  |  |  |  |  | 88* % of control | no effect | 
3 | COc1cc(N)c(F)cc1C(=O)CCC1CCN(CC2CCCCCC2)CC1 [MR36014] |  |  |  |  |  |  |  |  |  | ≤ 50
